Molecular target: T1, Estrogen receptor α (ERα) (Homo sapiens, UniProt P03372)
T1 construct: host or cells: ER-α-UAS-bla GripTite 293 cells
T1 sequence (P03372 311-547 limits assumed): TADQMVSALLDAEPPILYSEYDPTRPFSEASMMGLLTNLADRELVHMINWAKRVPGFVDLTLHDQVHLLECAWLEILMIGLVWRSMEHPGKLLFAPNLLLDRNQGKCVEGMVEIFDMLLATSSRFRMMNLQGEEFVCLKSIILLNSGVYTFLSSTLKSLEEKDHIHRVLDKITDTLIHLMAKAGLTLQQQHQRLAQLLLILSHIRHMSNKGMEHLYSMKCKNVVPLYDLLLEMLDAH
Assay: GeneBLAzer Cell-Based Nuclear Receptor Assay (beta-lactamase reporter), EC50 response value to ERα
Conditions: ER-α-UAS-bla GripTite 293 cells, agonist mode, 16-24 hours at 37° C., monomers tested at 7 to 250000 nM
Procedure: The plate is incubated for 16-24 hours at 37° C./5% CO2 in a humidified incubator. […] The plate is read on a fluorescence plate reader.
The following equations are used for each set of data points: […]

EC50	SMILES
4.14 µM	O=S(=O)(c1ccc(O)cc1)c1ccc(O)cc1 [Bisphenol S, 4,4′-dihydroxy-diphenylsulfone, reference compound]
> 79.1 µM	O=S(=O)(c1ccc(Oc2ccc(O)cc2)cc1)c1ccc(Oc2ccc(O)cc2)cc1 [Example 3 (HBS), Bis-4-hydroxyphenoxydiphenylsulfone]

The next lines start with the compound.

SMILES	EC50
CC(C)(c1ccc(O)cc1)c1ccc(C(C)(C)c2ccc(O)cc2)cc1 [BisP, α,α′-Bis(4-hydroxyphenyl)-1,4-diisopropylbenzene, reference compound]	> 25 µM
O=S(=O)(c1ccc(O)cc1)c1ccc(-c2ccc(S(=O)(=O)c3ccc(O)cc3)cc2)cc1 [Example 1 (HPS), Hydroxysulfonebiphenyl]	> 79.1 µM
O=P(c1ccccc1)(c1ccc(Oc2ccc(O)cc2)cc1)c1ccc(Oc2ccc(O)cc2)cc1 [Example 5 (HPPPO), Bis-4-hydroxyphenoxyphenylphosphine oxide]	> 250 µM

From patent US20140113093A1, “Polymers with reduced estrogenic activity” (SOLVAY SPECIALITY POLYMERS USA, LLC, priority 2011, published 2014)
